Measured values as given in PMC3024946, “Hydroxyproline-containing collagen analogs trigger the release and activation of collagen-sequestered proMMP-2 by competition with prodomain-derived peptide P33-42” (Fibrogenesis & Tissue Repair, 2011).

How the values were obtained:
ActMMP-2 [1] = test: Fluorogenic short-substrate assay, activity of actMMP-2; type: biochemical, human; conditions: CI-coated wells
Procedure: (§1) Enzymatic activities of MMPs were studied spectrofluorimetrically by cleavage of fluorogenic substrates in MMP activity buffer within 2 to 5 h. For gelatinases 800 nM MCA-Pro-Leu-Gly-Leu-Dnp-Dap-Ala-Arg-NH2 (λex/em 328/393 nm; Bachem, Bubendorf, Switzerland) or 10 μg/ml DQ-gelatine were used, according to the method described by Knight et al. for collagenases 800 nM MCA-Pro-Cha-Gly-Nva-His-Ala-Dpa-NH2 (λex/em 280/360 nm; Anaspec, San José, CA, USA). In some experiments, proMMP-2 was fully activated in the presence of 1 mM APMA prior to the kinetic measurements. A quantity of 50 ng pro- or actMMP-2 alone or mixed with 10- to 150-fold molar excesses of (GPO)10, GAP, P33-42 or mixtures of (GPO)10 and P33-42, were added to CI-coated, BSA-coated (1 μg/well both) or uncoated wells containing 150 μl of the respective substrate solution. The peptide P33-42 was purchased from the Institute of Biochemistry (Humboldt-University, Berlin, Germany). The influence of CI on MMP-2 enzymatic activity against the quenched fluorescent substrate could be excluded. Background subtraction (measurement without MMPs) was applied to all curves. All experiments were performed with a fluorescence microplate reader (Molecular Devices, Sunnyvale, CA, USA) and black 96-well microtiter plates with a clear bottom (Greiner bio-one, Frickenhausen, Germany).

ActMMP-9 = test: Solid-phase binding of [125I]-actMMP-9 to immobilized collagens/peptides (microwells); design: species or system human; conditions: ActMMP-9, 2 ng/well; coated wells; 4°C, 2 h; residual radioactivity; mean ± SD, at least five experiments in triplicate
Procedure: (§2) Human recombinant proMMPs and in vitro activated MMPs were obtained from Invitek and were labeled with the [^125I]-Bolton-Hunter reagent according to the manufacturer's instructions (PerkinElmer, Rodgau, Germany) before the buffer was exchanged for phosphate-buffered saline (PBS) with 0.05% (vol/vol) Tween 20 by gel filtration as described previously. Specific radioactivity for [^125I]-MMPs was 3-9 × 10^4 cpm/ng. Precipitation with 10% (wt/vol) trichloroacetic acid and 200 μg of BSA recovered 96% to 100% of protein-bound radioactivity. Aliquots of labeled MMPs were frozen and stored at -80°C. The activity and integrity were checked by substrate gel zymography using SDS-PAGE and autoradiography with overnight exposure to Biomax MS film (Kodak, Stuttgart, Germany) (Figure 2A).
(§3) Native human CI, CIII and CVI were purified from skin tissue and placenta. The CI single chains α1(I) and α2(I) were obtained and modified as described previously. To prepare defined fragments, 2 mg of α1(I) were dissolved in 1 ml of 70% (vol/vol) formic acid at room temperature, the tubes were flushed with nitrogen for 10 min, and then 2 mg of CB were added. After incubation for 4 h at 37°C, free CB was neutralized and the samples were lyophilized. The peptides CB3, CB6, CB7 and CB8 were separated from the reaction mixture by gel filtration followed by ion-exchange chromatography. The resulting peptides were characterized by amino acid analysis and SDS-PAGE [45, 46]. The CB peptides had the following melting temperatures: CB3, 23.9°C; CB6, 26.7°C; CB7, 28.1°C; and CB8, 28.0°C [31].
(§4) The following collagen analogs and control peptides were synthesized as described previously: (GPO)10, H-Gly-Cys-Hyp-(Gly-Pro-Hyp)10-Gly-Cys-Hyp-Gly-NH2; (GPP)10, H-Gly-Cys-Pro-(Gly-Pro-Pro)10-Gly-Cys-Pro-Gly-NH2; and GAP, H-Gly-Ala-Cys-(Gly-Ala-Pro)5-Gly-Phe-Hyp-Gly-Glu-Arg-(Gly-Ala-Pro)5-NH2. Peptides (POG)10, (PPG)10 and (POG)5 were purchased from Peptide International (Louisville, KY, USA). Spontaneous triple-helix assembly was approved by polarimetry over a 10-cm path length at 1°C/min in 10 mM phosphate buffer, pH 7.4. At 5 mg/ml, midpoints of melting curves occurred at 82.3 ± 1.4°C for (GPO)10 and at 45.8 ± 0.8°C for (GPP)10. […] Graphs were calculated from the primary data using a custom fitting program written by D.A. Slatter (Department of Biochemistry, University of Cambridge, Cambridge, UK [48]) to model different possible transitions. All collagens, CI derivatives and peptides were stored in stock solutions of 2 mg/ml in 150 mM acetic acid at -20°C.
(§5) ProMMP-2 and proMMP-9 or actMMP-2 and actMMP-9 were bound to nitrocellulose and polystyrene-immobilized native collagens, CI chains, CB peptides or structural analogs. Serial dilutions of collagens or CI derivatives in 150 mM acetic acid were dotted at 3 × 3 μl to a nitrocellulose membrane with high protein-binding capacity (GE Healthcare, Munich, Germany). Air-dried membranes were blocked with PBS and 0.3% (vol/vol) Tween 20 overnight at 4°C, washed three times, and incubated with 1 ng/ml [^125I]-pro- and actMMP-2 and pro- and actMMP-9 in PBS and 0.3% (vol/vol) Tween 20 for 2 h at room temperature. Membranes were washed again and air-dried, and bound MMP was monitored by autoradiography. In parallel, polystyrene microtiter plates (Dynex, Chantilly, VA, USA) were coated with collagen proteins and peptides. Here 2 μg/well or 200 ng/well proteins and peptides or BSA as control were immobilized in 100 μl of 50 mM ammonium bicarbonate buffer, pH 9.6, by overnight incubation at 4°C. Immobilization efficacies were 20% to 45% of total proteins. Wells were washed three times with PBS, and nonspecific binding sites were blocked with PBS and 0.05% (vol/vol) Tween 20 for 1 h at room temperature. All incubation steps were performed with 2 ng of [^125I]-MMPs at 4°C for 2 h. […]

ProMMP-2 [2] = test: Solid-phase binding of [125I]-proMMP-2 to immobilized collagens/peptides (microwells); design: species or system human; conditions: ProMMP-2, 2 ng/well; coated wells; 4°C, 2 h; residual radioactivity; mean ± SD, at least five experiments in triplicate
Procedure: as §2, §3, §4, §5

ActMMP-2 [3] = test: Solid-phase binding of [125I]-actMMP-2 to immobilized collagens/peptides (microwells); design: species or system human; conditions: ActMMP-2, 2 ng/well; coated wells; 4°C, 2 h; residual radioactivity; mean ± SD, at least five experiments in triplicate
Procedure: as §2, §3, §4, §5

[4] = soluble human placenta-isolated triple-helical portion of CI; ref [30]; cited from earlier work
Description: We tested α1(I) chains, which rapidly refold into triple-helical conformation in neutral buffers at room temperature, as well as CB-peptides of the α1(I) chain, where the length of the triple helix affects their thermal stability. Here the strength of binding of proMMP-2 and proMMP-9 to CB peptides directly correlated to the thermal stability of its tri ... || Native human CI, CIII and CVI were purified from skin tissue and placenta. The CI single chains α1(I) and α2(I) were obtained and modified as described previously. To prepare defined fragments, 2 mg of α1(I) were dissolved in 1 ml of 70% (vol/vol) formic acid at room temperature, the tubes were flushed with nitrogen for 10 min, and then 2 mg of CB were added. After incubation for 4 h at 37°C, free CB was neutralized and the samples were lyophilized. The peptides CB3, CB6, CB7 and CB8 were separated from the reaction mixture by gel filtration followed by ion-exchange chromatography. The ...

ProMMP-9 = test: Solid-phase binding of [125I]-proMMP-9 to immobilized collagens/peptides (microwells); design: species or system human; conditions: ProMMP-9, 2 ng/well; coated wells; 4°C, 2 h; residual radioactivity; mean ± SD, at least five experiments in triplicate
Procedure: as §2, §3, §4, §5

ProMMP-2 [5] = test: Fluorogenic short-substrate assay, activation of proMMP-2; type: biochemical, human; conditions: proMMP-2; CI-coated wells
Procedure: as §1

Binding of [125I]-MMPs (ActMMP-9): 3.1 ± 0.5 % of maximum control
Binding of [125I]-MMPs (ProMMP-2 [2]): 24.0 ± 5.6 % of maximum control
Binding of [125I]-MMPs (ActMMP-2 [3]): 11.1 ± 1.8 % of maximum control
Binding of [125I]-MMPs (ProMMP-9): 30.9 ± 3.1 % of maximum control
Substance: CI: native human collagen type I purified from skin tissue and placenta
effect of CI coating on activity (ActMMP-2 [1]): strong reduction in activity
melting temperature [4]: 33.8 °C
effect of CI coating on activity (ProMMP-2 [5]): strong reduction in activity
